According to patent US20040259853A1, “Methods for preventing acute clinical vascular events in a subject” (The Trustees of Columbia University, priority 2000, published 2004):

Experiments:
[1] = system: ABCA1-mediated cholesterol efflux; assay: 3H-cholesterol efflux to apoA-I from free cholesterol-loaded macrophages; assay type: cell-based, mouse; settings: 70 nM; macrophages incubated for a prolonged period with acetyl-LDL without ACAT inhibitor (FIG. 12C)
ACAT enzyme = settings: reference 24; cited from earlier work
[2] = system: ABCA1-mediated cholesterol efflux; assay: 3H-cholesterol efflux to apoA-I from free cholesterol-loaded macrophages; assay type: cell-based, mouse
Protocol: Peritoneal macrophages from C57 mice were incubated for 5 h with 100 μg/ml ^3H-cholesterol-labeled acetyl-LDL in DMEM, 0.2% BSA, in the presence of 10 μg/ml 58035.
(§1) Acetyl-LDL (800 μg) was incubated with 10 μCi ^3H-cholesterol for 30 min at 37° C., followed by addition of 8 ml of DMEM, 0.2% BSA. The macrophages were incubated with this medium for 5 h, washed 3 times with PBS, and then incubated with DMEM, 0.2% BSA for 15 min at 37° C. After washing with PBS, the macrophages were incubated with DMEM, 0.2% BSA, containing either 15 μg/ml apoAI or 20 μg/ml HDL2. At the indicated time points, 100 μl of media was removed and centrifuged for 5 min at 14,000 rpm to pellet cellular debris. The radioactivity in this fraction of media was quantitated by liquid scintillation counting. After the last time point, the remainder of the media was removed, and the cells were dissolved in 0.5 ml of 0.1 N NaOH containing 0.5% sodium dodecylsulfate (5 h at room temperature). A 100 μl-aliquot of the cell lysate was counted, and the percent efflux was calculated as (media cpm)[…](cell +media cpm)×100. Total protein in the cell lysate was determined using the Bio-Rad DC protein assay kit. Note that there was no statistical difference in cellular cpm or protein between cholesteryl ester- and free cholesterol-loaded macrophages.

[3] = system: mouse peritoneal macrophages; settings: very low doses; reference 22; cited from earlier work
[4] = system: ABCA1-independent efflux to HDL2; assay: 3H-cholesterol efflux to HDL2 from free cholesterol-loaded macrophages; assay type: cell-based, mouse; settings: 70 nM, FC-loaded macrophages (FIG. 12B)
Protocol: as §1

[5] = system: LDL receptor knockout mice; assay: In vivo efficacy in LDL receptor knockout mouse model of atherosclerosis; settings: 0.75 mg/kg/d
Protocol: Plasma was assayed for total cholesterol.
Asteriks denote statistically significant differences between drug and control groups (p<0.05 by the Student's t test).

[6] = system: cholesterol trafficking to the endoplasmic reticulum; assay: Whole-cell cholesterol esterification assay (cholesterol trafficking to ER membranes); assay type: cell-based, mouse
Protocol: Shown is the mean±S.E.M (n=3) of [^3H]cholesteryl ester formed (in cpm/mg cell protein).
Macrophages were incubated for 5 h with DMEM, 0.2% BSA containing 50 μg/ml [^3H]cholesterol-labeled acetyl-LDL alone or containing the indicated compounds. Cellular lipids were extracted twice with 0.5 ml of hexane:isopropanol (3:2, v/v), and the cellular content of [^3H]cholesteryl ester was determined using thin-layer chromatography (49). The lipid-extracted cell monolayer was dissolved in 1 ml 1N NaOH and assayed for protein content using the method of Lowry et al. (50).

ER calcium stores = assay: Assay of ER calcium pools (Fura-2, thapsigargin release); assay type: cell-based, mouse; settings: 70 nM, acetyl-LDL + 58035, 2.5 h (FIG. 18B)
Protocol: Shown are representative tracings of the 340/380-nm Fura-2 fluorescence ratio in an individual macrophage from each treatment group before and after addition of 1 μM thapsigargin.
Untreated or cholesterol-loaded macrophages on 25-mm coverslip-containing microscopy dishes were loaded with 4 μM Fura-2 μM (Molecular Probes) and 0.08% Pluronic F-127 in Hank's buffered saline solution (HBSS) at room temperature for 30 min. The monolayers were then washed twice with HBSS, incubated with HBSS for an additional 30 min and mounted on the stage of an inverted Nikon diaphot microscope equipped with a 40× objective. Sulfinpyrazone (250 μM) was included in all solutions to prevent excretion of the Fura-2 by the macrophages. Fluorescence images (510-nm emission following alternate 340-nm and 380-nm excitation) were collected through a charge-coupled device camera (Photon Technology International), and the 340:380 ratio of individual cells in these images was calculated.
Cells exposed to U18666A alone or culture media with no additives served as further control groups. […] Thapsigargin treatment results in emptying of ER calcium stores into the cytosol, which was quantified by fluorescence microscopy, providing a measure of releasable ER calcium stores at the time of thapsigargin addition.

[7] = system: unfolded protein response (UPR); settings: very low doses; reference 22; cited from earlier work

CCN(CC)CCO[C@H]1CC[C@@]2(C)C(=CC[C@@H]3[C@@H]2CC[C@]2(C)C(=O)CC[C@@H]32)C1 [U18666A, 3-β-[2-(diethylamino)ethoxy]androst-5-en-17-one]
increase of cholesterol efflux to apoA-I [1]: about 30% | direct inhibitory effect on the ACAT enzyme (ACAT enzyme): no direct inhibitory effect | concentrations at which efflux was gradually inhibited ([2]; FC-loaded macrophages): greater than 100 nM | induction of cholesterol efflux to ApoA-1 ([2]; FC-loaded macrophages (FIGS. 11A, 11B)): marked ability to induce cholesterol efflux to ApoA-1 | concentration of peak cholesterol efflux to ApoA-1 ([2]; FC-loaded macrophages, 6 h apoA-I (FIG. 11A)): 70 nM | restoration of ABCA1-dependent efflux ([2]; optimal low doses, FC-loaded macrophages (FIG. 12A)): restored ABCA1-dependent efflux | block of apoptosis in FC-loaded cultured macrophages [3]: almost completely | ABCA1-independent efflux (to HDL2) [4]: improved | plasma HDL cholesterol versus vehicle ([5]; 12 weeks (FIG. 14B)): similar | atherosclerotic lesion area, proximal aorta ([5]; 12 weeks (FIG. 14C), p<0.05): marked reduction | acellular area, proximal aorta ([5]; 12 weeks (FIG. 14D), p<0.05): marked reduction | lipid core area, proximal aorta ([5]; 12 weeks (FIG. 14E), p<0.05): marked reduction | plasma total cholesterol versus vehicle ([5]; 12 weeks, cholesterol and saturated fat diet (FIG. 14A)): similar | decrease of cholesterol trafficking to the endoplasmic reticulum ([6]; 70 nM (data not shown)): about 90% | reduction of re-esterification of ingested cholesterol ([6]; low dose (70 nM), 5 h, acetyl-LDL (FIG. 15A)): 90% | FC-loading-induced depletion of ER calcium stores (smaller thapsigargin-induced rise) (ER calcium stores): completely prevented | block of UPR activation in FC-loaded cultured macrophages [7]: almost completely
